In test [1] the test system is MCT1 expressing WiDr cells. Description: Seahorse XFe96 mitochondrial stress test (OCR), WiDr. Type of test: cell-based. The settings on record: 30 μM. Here is the method:
(§1) Extracellular acidification rates (ECAR) and oxygen consumption rates (OCR) were recorded in real-time for glycolysis stress test (GST) and mitochondrial stress test (MST), respectively, using Agilent Seahorse XFe96® analyzer.

The subject of test [2] is MCT4 expressing MDA-MB-231 cells. Description: Seahorse XFe96 mitochondrial stress test (OCR), MDA-MB-231. Type of test: cell-based. The settings on record: 30 μM. The protocol:
as §1

The subject of test [3] is MCT1 expressing WiDr cells. Description: Seahorse XFe96 glycolysis stress test (ECAR), WiDr. The settings on record: 30 μM. Type of test: cell-based. Here is the method: (§2) In the GST, three parameters namely glycolysis, glycolytic capacity and glycolytic reserve were measured.
as §1

Test [4] has as its system MCT4 expressing MDA-MB-231 cells. Put plainly: Seahorse XFe96 glycolysis stress test (ECAR), MDA-MB-231. Type of test: cell-based. The settings on record: 30 μM. Here is the method:
as §2, §1

The target in test [5] is T1, MCT4 (Homo sapiens, UniProt O15427).
T1 construct: These cells predominantly express MCT4 as confirmed by Western blot and quantitative PCR analysis; host or cells: MDA-MB-231
T1 sequence (O15427 2-465 limits assumed): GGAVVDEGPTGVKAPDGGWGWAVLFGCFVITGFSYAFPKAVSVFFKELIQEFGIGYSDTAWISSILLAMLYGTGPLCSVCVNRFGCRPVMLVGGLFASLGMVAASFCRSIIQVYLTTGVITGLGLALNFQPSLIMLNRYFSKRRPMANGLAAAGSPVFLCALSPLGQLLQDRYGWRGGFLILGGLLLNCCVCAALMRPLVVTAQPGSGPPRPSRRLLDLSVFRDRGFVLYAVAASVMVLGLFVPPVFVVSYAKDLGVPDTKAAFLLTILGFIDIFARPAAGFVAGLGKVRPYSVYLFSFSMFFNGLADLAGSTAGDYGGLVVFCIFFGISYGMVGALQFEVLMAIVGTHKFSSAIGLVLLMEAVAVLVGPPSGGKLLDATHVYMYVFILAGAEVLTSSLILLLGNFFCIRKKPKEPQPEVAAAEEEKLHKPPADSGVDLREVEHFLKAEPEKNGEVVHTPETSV
T1 sequence (P35613 140-385 partner limits assumed): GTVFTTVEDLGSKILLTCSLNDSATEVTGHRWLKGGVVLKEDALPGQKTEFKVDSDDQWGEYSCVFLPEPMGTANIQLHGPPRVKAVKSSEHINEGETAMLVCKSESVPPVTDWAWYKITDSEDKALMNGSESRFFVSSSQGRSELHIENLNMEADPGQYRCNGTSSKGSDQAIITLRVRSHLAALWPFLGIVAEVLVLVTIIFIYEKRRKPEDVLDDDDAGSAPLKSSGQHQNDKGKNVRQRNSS
Description: L-[14C]-lactate uptake study in MCT4 expressing MDA-MB-231 cells. Type of test: cell-based. Here is the method: In this study, an L-[^14C]-lactate based transport assay was developed by us to quantify MCT4 transport and its inhibition by test compounds. […] For the MCT4 transport assay, the pH of HEPES buffer with L-[^14C]-lactate was adjusted to 7.0 such that lactate influx into the cells was aided by the pH gradient. […] Test compounds were diluted to working concentration in HEPES buffer (140 mM NaCl, 5 mM KCl, 2 mM CaCl2, 2 mM MgCl2, 10 mM HEPES, pH 7.0) containing 3 μM L-[^14C]-lactate (Perkin Elmer) and 2 μM L-lactate. […] HEPES buffer was replaced with 250 μL test solution. After 1 hour, media was replaced with 500 μL ice-cold stop buffer (0.1 mM CHC solution in HBS, pH 7.4) and the plates were placed on ice. Cells were washed twice with ice-cold stop buffer and solubilized using 250 μL of 0.1 M NaOH in 5% Triton-X (Millipore Sigma). A 150 μL aliquot from each well was added to 4 mL EcoLite(+)™ scintillation fluid (MP Biomedicals) and radioactivity was determined by scintillation spectrometry. Inhibition by each test solution was calculated as a percentage of the maximum control uptake. CHC and dimethylsulfoxide (DMSO) were used as controls. […]

Test [6] concerns WiDr cells. Put plainly: SRB cell proliferation inhibition assay, WiDr. Type of test: cell-based. The settings on record: Homo sapiens, 72 hours, average ± sem. Here is the method:
(§3) MDA-MB-231 cells (ATCC, 2015) were grown in DMEM supplemented with 10% FBS and penicillin-streptomycin (50 U/ml, 50 μg/ml, Invitrogen). WiDr cells (ATCC, 2017) were cultured in MEM medium supplemented with 10% FBS (Atlanta Biologicals) and penicillin-streptomycin (50 U/ml, 50 μg/ml). For in vitro experiments, after seeding, cells were incubated at 37°C in 5% CO2 for 18–24 hours before the addition of test compounds.
(§4) Cells (5 × 10^4 cells/mL) were cultured in 48-well plates. Test compounds were dissolved in DMSO (final concentration of DMSO is <0.1%) and were added to culture wells at various concentrations in replicate and incubated for 72 hours. Growth medium was removed and the wells were washed with PBS and dried. SRB (0.5% in 1% acetic acid) was added to the wells and incubated for 30–45 minutes. The wells were washed 3 times with 1% acetic acid and dried. The cellular protein was dissolved in trizma base (10 mM, pH 10.2) and absorbance was recorded at 540 nm. Percent survival was calculated using the formula %Survival=Abstest compound/Abscontrol×100 .

Test [7] has as its system MDA-MB-231 cells. Put plainly: SRB cell proliferation inhibition assay, MDA-MB-231. Type of test: cell-based. To be noted: Homo sapiens, 72 hours, average ± sem. Here is the method:
as §3, §4

The test system of test [8] is MCT1. The settings on record: RBE4 cells, cited from earlier work.
The subject of test [9] is MDA-MB-231 tumor xenograft. Description: Tumor growth inhibition, MDA-MB-231 xenograft model. Type of test: in vivo. To be noted: SCID mice. The protocol: Figure 6 In vivo xenograft studies in WiDr and MDA-MB-231 tumor models (A) WiDr tumor xenograft study of compound 3 and compound 9. Mice (n = 8) were treated with 8 mg/kg of compound 3, intraperitoneally, two times a day. (B) Tumor growth inhibition study with compound 9 in MDA-MB-231 tumor xenograft model (n = 6). Mice were treated with compound 9 (70 mg/kg, ip, bid until day-4; qd from day-5), a combination of 9 and doxorubicin (0.5 mg/kg, ip, five days a week), and doxorubicin. (C) Tumor growth inhibition based on isolated tumor mass. ^*P < 0.05, ^**P < 0.01, ^***P < 0.001, ^****P < 0.0001. Schematic representation of (D) untreated tumor cells and (E) inhibition of MCT1 and MCT4 and decreased glycolysis and mitochondrial OxPhos in compound 9 treated tumor cells. Upward hollowed arrow indicates “increase” in function/amount and downward hollowed arrow indicates “decrease” in function/amount.
Group-1 was administered with compound 9, group-2 was given a combination of compound 9 and clinical breast cancer drug doxorubicin (AKSci catalog # E518), and group-3 was treated with doxorubicin alone. Group-4 was assigned as a control group and treated with vehicle (10% DMSO in saline). The treatment was continued up to 18 days and on day 20, the mice were euthanized and tumor masses isolated and weighed. […] Due to these reasons, higher dosages of compound 9 were required to produce significant anticancer efficacy in vivo. In all these studies, <20% of body weight loss was observed.
Tumor cells suspended in 1:1 matrigel-PBS were injected on right flank of female SCID mice (n = 6 mice/group, 10^7 MDA-MB-231 cells) or right flank of female athymic nude mice (n = 8 mice/group, 5 × 10^6 WiDr cells). Tumors were measured using calipers every 2–3 days and tumor volumes were calculated using the formula V = ab^2/2 where ‘a’ is the long diameter of the tumor and ‘b’ is the short diameter of the tumor. Tumor growth inhibition was determined using the formula % inhibition = [(C – T)/C] × 100 where C is average tumor weight of the control group and T is the average tumor weight of the test group.

Where [10] appears, read: Supplementary Table 1, average ± SEM, read-out: MCT4 IC50.
Where [11] appears, read: Supplementary Table 1, average ± SEM.

The structures appear in SMILES notation. Read-outs that look alike come from different tables or passages of the source.

With `Cc1[nH]nc(C(F)(F)F)c1Cc1sc2c(c1C(=O)N1C[C@](C)(O)CO1)c(=O)n(C)c(=O)n2C(C)C` [AZD3965, reference compound], in test [1], the “ATP production (MST, OCR)” value is reported as “did not affect”; the “maximal respiration (MST, OCR)” value is “did not affect”; the “proton leak (MST, OCR)” value is reported as “did not affect”; the “spare respiratory capacity (MST, OCR)” value was “did not affect”. Further, in test [2], the “ATP production (MST, OCR)” value is “did not affect”; the “maximal respiration (MST, OCR)” value was “did not affect”; the “proton leak (MST, OCR)” value is recorded as “did not affect”; the “spare respiratory capacity (MST, OCR)” value is on record as “did not affect”. In [3], the “glycolytic capacity (GST, ECAR)” value is “decreased” and the “glycolytic reserve (GST, ECAR)” value is “decreased”. In test [4], the “glycolysis (GST, ECAR)” value was “did not show any glycolysis inhibition”; the “glycolytic capacity (GST, ECAR)” value is listed as “decreased glycolytic capacity only in WiDr”; the “glycolytic reserve (GST, ECAR)” value is on record as “decreased glycolytic reserve only in MCT1 expressing WiDr”.
Broadly, the IC50 is the point on the concentration scale where inhibition reaches its midpoint. On to `C=CCN(CC=C)c1ccc(/C=C(\C#N)C(=O)O)c(OC)c1` [Allyl (2)], for which the IC50 in [5] (Figure 1A and text, lactate uptake, read-out: MCT4 IC50) was 28 nM; in test [5] (setting [10]) it was 24 ± 6 nM; in test [6], > 25000 nM; in test [7], > 25000 nM; in test [8] (setting [11]) it was 29 ± 2 nM.
Turning to `COc1cc(N(Cc2ccccc2)Cc2ccccc2)ccc1/C=C(\C#N)C(=O)O` [Benzyl (8)], the concentration for half-maximal inhibition (IC50) in [5] (setting [10]) is 32 ± 3 nM; in [6], > 25000 nM; in [7], > 25000 nM; in [8] (Figure 1A and text, lactate uptake), 37 nM; in test [8] (setting [11]), 25 ± 3 nM.
As to `CCCCN(CCCC)c1ccc(/C=C(\C#N)C(=O)O)c(OC)c1` [Butyl (3)], in test [5] (setting [10]), the IC50 was 14 ± 2 nM. Besides, in [1], the “ATP production (MST, OCR)” value is reported as “decreased”; the “maximal respiration (MST, OCR)” value is recorded as “decreased”; the “spare respiratory capacity (MST, OCR)” value is listed as “decreased”. Also, in test [2], the “ATP production (MST, OCR)” value is given as “decreased”; the “maximal respiration (MST, OCR)” value is “decreased”; the “spare respiratory capacity (MST, OCR)” value was “decreased”. In addition, in test [3], the “glycolytic capacity (GST, ECAR)” value is listed as “significant decrease” and the “glycolytic reserve (GST, ECAR)” value is reported as “significant decrease”. The concentration for half-maximal inhibition (IC50) in [6] is > 25000 nM. Besides, the IC50 in test [7] was > 25000 nM.
Turning to `N#CC(=Cc1ccc(O)cc1)C(=O)O` [CHC, α-cyano-4-hydroxy cinnamic acid, reference compound], in test [5] (MCT4 IC50, CHC, lactate uptake), the IC50 is ≥ 150000 nM. In test [1], the “ATP production (MST, OCR)” value is “did not affect”; the “maximal respiration (MST, OCR)” value is recorded as “did not affect”; the “proton leak (MST, OCR)” value was “did not affect”; the “spare respiratory capacity (MST, OCR)” value was “did not affect”. Also, in test [2], the “ATP production (MST, OCR)” value is given as “did not affect”; the “maximal respiration (MST, OCR)” value was “did not affect”; the “proton leak (MST, OCR)” value was “did not affect”; the “spare respiratory capacity (MST, OCR)” value is on record as “did not affect”. In [3], the “glycolysis (GST, ECAR)” value was “did not affect”; the “glycolytic capacity (GST, ECAR)” value is “did not affect”; the “glycolytic reserve (GST, ECAR)” value was “decreased”. The half-maximal inhibitory concentration (IC50) in [8] (CHC, lactate uptake) is ≥ 150000 nM. In test [4], the “glycolysis (GST, ECAR)” value is listed as “did not affect”; the “glycolytic capacity (GST, ECAR)” value is on record as “did not affect”; the “glycolytic reserve (GST, ECAR)” value was “decreased glycolytic reserve only in MCT1 expressing WiDr”.
Turning to `COc1cc(N(CC(C)C)CC(C)C)ccc1/C=C(\C#N)C(=O)O` [Isobutyl (4)], the half-maximal inhibitory concentration (IC50) is 17 ± 2 nM in test [5] (setting [10]), > 25000 nM in test [6], > 25000 nM in test [7] and 11 ± 4 nM in [8] (setting [11]).
In the case of `CCCCCN(CCCCC)c1ccc(/C=C(\C#N)C(=O)O)c(OC)c1` [Pentyl (5)], the IC50 in test [5] (setting [10]) is 85 ± 8 nM; in [6], > 25000 nM; in test [7] it was > 25000 nM; in [8] (setting [11]), 34 ± 7 nM.
For `COc1cc(N2CCCCC2)ccc1/C=C(\C#N)C(=O)O` [Piperidinyl (7)], the IC50 in test [5] (setting [10]) is 58 ± 13 nM; in [6], > 25000 nM; in test [7] it was > 25000 nM; in test [8] (setting [11]), 25 ± 5 nM.
With `CCCN(CCC)c1ccc(/C=C(\C#N)C(=O)O)c(OC)c1` [Propyl (1)], the IC50 in [5] (setting [10]) was 11 ± 1 nM; in test [6], > 25000 nM; in test [7], > 25000 nM; in test [8] (setting [11]), 12 ± 1 nM.
`COc1cc(N2CCCC2)ccc1/C=C(\C#N)C(=O)O` [Pyrrolidinyl (6)]: the IC50 in test [6] and in [7] was > 25000 nM in each case.
Consider `COc1cccc2c1C(=O)c1c(O)c3c(c(O)c1C2=O)C[C@@](O)(C(=O)CO)C[C@@H]3O[C@H]1C[C@H](N)[C@H](O)[C@H](C)O1` [doxorubicin, reference compound], for which the “tumor growth inhibition based on tumor volume” value in test [9] (9 70 mg/kg ip bid until day-4, qd from day-5, doxorubicin 0.5 mg/kg ip five days a week, treatment up to 18 days) amounted to 48%. Further, the “tumor growth inhibition based on isolated tumor weights” value in [9] (same regimens, tumors isolated on day 20) is listed as 52%.

The values above are taken from paper PMC6481325, “Novel N,N-dialkyl cyanocinnamic acids as monocarboxylate transporter 1 and 4 inhibitors” (Oncotarget, 2019).
